Results on eight compounds are retold here after patent US20210253557A1, “SUBSTITUTED TRIAZOLE DERIVATIVES AND USES THEREOF” (Bayer Pharma Aktiengesellschaft, priority 2017, published 2021).

Each structure is given as a SMILES string. Structures can show the parent of a compound that is named as a salt.

Assay [1] concerns the target T1, human V1a receptor (Homo sapiens, UniProt P37288).
T1 construct: expressed in transfected cells; host or cells: CHO K1 (ATCC), also stably transfected with a modified aequorin
In words: Cellular in vitro assay for determining vasopressin receptor activity (V1a, aequorin luminescence). In kind it is cell-based. The conditions noted are these: for IC50: CHO cell line transfected with the human V1a receptor, [Arg8]-vasopressin at EC50 concentration, read-out: IC50 hV1a; for ratio IC50 hV2/hV1a: selectivity ratio of IC50 hV2 to IC50 hV1a. On the procedure:
(§1) B-1. Cellular In Vitro Assay for Determining Vasopressin Receptor Activity
(§2) The identification of agonists and antagonists of the V1a and V2 vasopressin receptors from humans, rats and dogs as well as the quantification of the activity of the compounds of the invention is carried out using recombinant cell lines. These cell lines originally derive from a hamster's ovary epithelial cell (Chinese Hamster Ovary, CHO K1, ATCC: American Type Culture Collection, Manassas, Va. 20108, USA). The test cell lines constitutively express the human, rat or dog V1a or V2 receptors. In case of the Gαq-coupled V1a receptors, cells are also stably transfected with a modified form of the calcium-sensitive photoproteins aequorin (human and rat V1a) or obelin (dog V1a), which, after reconstitution with the cofactor coelenterazine, emit light when there are increases in free calcium concentrations [Rizzuto R, Simpson A W, Brini M, Pozzan T, Nature 358, 325-327 (1992); Illarionov B A, Bondar V S, Illarionova V A, Vysotski E S, Gene 153 (2), 273-274 (1995)]. The resulting vasopressin receptor cells react to stimulation of the recombinantly expressed V1a receptors by intracellular release of calcium ions, which can be quantified by the resulting photoprotein luminescence. The Gs-coupled V2 receptors are stably transfected into cell lines expressing the gene for firefly luciferase under control of a CRE-responsible promoter. Activation of V2 receptors induces the activation of the CRE-responsive promoter via cAMP increase, thereby inducing the expression of firefly luciferase. The light emitted by photoproteins of V1a cell lines as well as the light emitted by firefly luciferase of V2 cell lines corresponds to the activation or inhibition of the respective vasopressin receptor. The bioluminescence of the cell lines is detected using a suitable luminometer [Milligan G, Marshall F, Rees S, Trends in Pharmacological Sciences 17, 235-237 (1996)].
Vasopressin V1a receptor cell lines:
On the day before the assay, the cells are plated out in culture medium (DMEM/F12, 2% FCS, 2 mM glutamine, 10 mM HEPES, 5 μg/ml coelenterazine) in 384-well microtiter plates and kept in a cell incubator (96% humidity, 5% v/v CO2, 37° C.). On the day of the assay, test compounds in various concentrations are placed for 10 minutes in the wells of the microtiter plate before the agonist [Arg^8]-vasopressin at EC50 concentration is added. The resulting light signal is measured immediately in a luminometer.
(§3) Table 1A below lists individual IC50 values for the compounds of the invention (including racemic mixtures as well as separated enantiomers) that were obtained from cell lines transfected with the human V1a or V2 receptor: […]

Assay [2] addresses T2, human V2 receptor (Homo sapiens, UniProt P30518).
T2 construct: expressed in transfected cells; host or cells: CHO K1 (ATCC) expressing firefly luciferase under a CRE-responsive promoter
In words: Cellular in vitro assay for determining vasopressin receptor activity (V2, CRE-luciferase). The assay is classed as cell-based. The following applies: CHO cell line transfected with the human V2 receptor; [Arg8]-vasopressin at EC50 concentration; read-out: IC50 hV2. On the procedure:
as §1, §2
Vasopressin V2 receptor cell lines:
On the day before the assay, the cells are plated out in culture medium (DMEM/F12, 2% FCS, 2 mM glutamine, 10 mM HEPES) in 384-well microtiter plates and kept in a cell incubator (96% humidity, 5% v/v CO2, 37° C.). On the day of the assay, test compounds in various concentrations and the agonist [Arg^8]-vasopressin at EC50 concentration are added together to the wells, and plates are incubated for 3 hours in a cell incubator. Upon addition of the cell lysis reagent Triton™ and the substrate luciferin, luminescence of firefly luciferase is measured in a luminometer.
as §3

T2 sequence (P30518 whole entry): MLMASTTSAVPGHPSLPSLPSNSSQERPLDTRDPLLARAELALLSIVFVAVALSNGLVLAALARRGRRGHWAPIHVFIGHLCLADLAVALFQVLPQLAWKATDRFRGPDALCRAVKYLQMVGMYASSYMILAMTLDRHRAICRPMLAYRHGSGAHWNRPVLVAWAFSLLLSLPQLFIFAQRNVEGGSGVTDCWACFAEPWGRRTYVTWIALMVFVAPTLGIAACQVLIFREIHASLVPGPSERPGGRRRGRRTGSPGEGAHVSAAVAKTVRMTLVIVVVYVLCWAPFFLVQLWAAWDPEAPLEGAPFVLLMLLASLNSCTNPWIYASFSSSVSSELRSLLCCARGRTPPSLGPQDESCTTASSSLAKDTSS
T1 sequence (P37288 whole entry): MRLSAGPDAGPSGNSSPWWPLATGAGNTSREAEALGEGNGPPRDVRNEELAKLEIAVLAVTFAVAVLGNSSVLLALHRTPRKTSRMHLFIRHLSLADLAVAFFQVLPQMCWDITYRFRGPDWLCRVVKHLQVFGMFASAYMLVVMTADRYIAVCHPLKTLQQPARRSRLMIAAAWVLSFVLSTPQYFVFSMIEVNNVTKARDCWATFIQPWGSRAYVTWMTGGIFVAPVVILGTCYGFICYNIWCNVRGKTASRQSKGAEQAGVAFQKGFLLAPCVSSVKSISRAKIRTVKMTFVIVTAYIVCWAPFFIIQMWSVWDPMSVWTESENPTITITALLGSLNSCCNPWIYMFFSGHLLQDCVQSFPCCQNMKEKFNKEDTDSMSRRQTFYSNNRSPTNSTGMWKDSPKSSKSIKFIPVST

For the compound `CC(=O)NC(C)c1nc(Cn2nc(-c3ccc(Cl)cc3)n(C[C@H](O)C(F)(F)F)c2=O)nn1-c1ccccc1Cl` (mixture of isomers) [Example 64, N-{1-[1-(2-Chlorophenyl)-3-({3-(4-chlorophenyl)-5-oxo-4-[(2S)-3,3,3-trifluoro-2-hydroxypropyl]-4,5-dihydro-1H-1,2,4-triazol-1-yl}methyl)-1H-1,2,4-triazol-5-yl]ethyl}acetamide], in assay [1], the IC50 came to 1.8 nM and the “ratio IC50 hV2/hV1a” value is 9.8. The IC50 in assay [2] came to 17.7 nM.
As for `CC(=O)NC(COC(C)(C)C)c1nc(Cn2nc(-c3ccc(Cl)cc3)n(C[C@H](O)C(F)(F)F)c2=O)nn1-c1ccccc1Cl` (single isomer, unassigned) [Example 89], the IC50 is 3.45 nM in assay [1] and 129 nM in assay [2]. For the same compound, in assay [1], the “ratio IC50 hV2/hV1a” value is listed as 37.4.
Taken in the same sequence, the figures for `C[C@@H](OC(N)=O)c1nc(Cn2nc(-c3ccc(Cl)cc3)n(C[C@H](O)C(F)(F)F)c2=O)nn1-c1c(Cl)cccc1Cl` [Example 2, (1R)-1-[3-({3-(4-Chlorophenyl)-5-oxo-4-[(2S)-3,3,3-trifluoro-2-hydroxypropyl]-4,5-dihydro-1H-1,2,4-triazol-1-yl}methyl)-1-(2,6-dichlorophenyl)-1H-1,2,4-triazol-5-yl]ethyl Carbamate] were 0.97 nM, 5.8 nM and 6.0.
On to `CS(=O)(=O)NC(CO)c1nc(Cn2nc(-c3ccc(Cl)cc3)n(C[C@H](O)C(F)(F)F)c2=O)nn1-c1ccccc1Cl` (single isomer, unassigned) [Example 86], for which, in assay [1], the IC50 worked out at 0.97 nM and the “ratio IC50 hV2/hV1a” value came to 2.1. In assay [2], the IC50 was determined as 2 nM.
On to `C[C@@H](OC(N)=O)c1nc(Cn2nc(-c3ccc(Cl)cc3)n(C[C@H](O)C(F)(F)F)c2=O)nn1-c1ncccc1OC(F)(F)F` [Example 23, (1R)-1-{3-({3-(4-Chlorophenyl)-5-oxo-4-[(2S)-3,3,3-trifluoro-2-hydroxypropyl]-4,5-dihydro-1H-1,2,4-triazol-1-yl}methyl)-1-[3-(trifluoromethoxy)pyridin-2-yl]-1H-1,2,4-triazol-5-yl}ethyl Carbamate], for which, in assay [1], the IC50 stood at 5.4 nM and the “ratio IC50 hV2/hV1a” value was found to be 52.8. In addition, the IC50 in assay [2] came out at 285 nM.
Taken in the same sequence, the figures for `COC(=O)N[C@@H](C)c1nc(Cn2nc(-c3ccc(Cl)cc3)n(C[C@H](O)C(F)(F)F)c2=O)nn1-c1cccc(Cl)c1` [Example 58, Methyl {(1S)-1-[1-(3-chlorophenyl)-3-({3-(4-chlorophenyl)-5-oxo-4-[(2S)-3,3,3-trifluoro-2-hydroxypropyl]-4,5-dihydro-1H-1,2,4-triazol-1-yl}methyl)-1H-1,2,4-triazol-5-yl]ethyl}Carbamate] were 21.4 nM, 0.1 and 1.95 nM.
Taken in the same sequence, the figures for `CNc1ccncc1-n1nc(Cn2nc(-c3ccc(Cl)cc3)n(C[C@H](O)C(F)(F)F)c2=O)nc1C(C)N` (mixture of isomers) [Example 124, 2-({5-[1-Aminoethyl]-1-[4-(methylamino)pyridin-3-yl]-1H-1,2,4-triazol-3-yl}methyl)-5-(4-chlorophenyl)-4-[(2S)-3,3,3-trifluoro-2-hydroxypropyl]-2,4-dihydro-3H-1,2,4-triazol-3-one hydrochloride] were 34 nM, 2.2 and 74.5 nM.
Taken in the same sequence, the figures for `O=C1NC(c2nc(Cn3nc(-c4ccc(Cl)cc4)n(C[C@H](O)C(F)(F)F)c3=O)nn2-c2ccccc2Cl)CO1` (single isomer, unassigned) [Example 100] were 4.33 nM, 20.2 and 87.5 nM.

The term IC50 denotes the midpoint of a concentration-inhibition curve.
